# Experimental data taken from patent publication US20230149318A1, “COMBINATIONS OF NANOPARTICLE-ENCAPSULATED CARGO ENTITIES AND METHODS FOR MAKING AND USING SAME” (Nurevelation, LLC, priority 2021, published 2023).
# Key:
# [1] = dystonia and parkinsonism due to antipsychotics; cited from earlier work
# [2] = NMR comparison of CBD before and after encapsulation into nanoparticles (stability); assay type: physicochemical; conditions: encapsulated CBD (bottom spectrum) relative to non-encapsulated CBD sample (top spectrum), FIG. 3
# Excerpt: In some aspects, the cannabinoid in the dispersion can have a purity of at least 90%. In a further aspect, the purity of the cannabinoid in the dispersion ranges from 90-100%. In a still further aspect, the purity of the cannabinoid in the dispersion ranges from 92-97%. In general, the inventors have discovered that the encapsulation process described herein can be improved with the use of a pure cannabinoid starting material (e.g., from 92-97% pure). Similarly, the nanoparticle encapsulated cannabinoid products can advantageously maintain the purity of the cannabinoid over extended periods of time. In some aspects, the purity of the cannabinoid starting material can be maintained once encapsulated for a period of twelve months or longer, e.g., 18 months or longer, or even 24 months or longer. The stable shelf life of the cannabinoid nanoparticles is an advantage over many existing methods for delivering cannabinoid products. In some aspects, the stability of the cannabinoid can be measured using NMR, e.g., by comparing a pre-encapsulated cannabinoid to a cannabinoid extracted from a nanoparticle prepared by a disclosed method.
Structure (SMILES),duration of benefits [1] [h],time until benefits are seen [1] [h],stability of CBD after encapsulation into nanoparticles (NMR spectra) [2]
CN1[C@@H]2CC[C@H]1C[C@@H](OC(c1ccccc1)c1ccccc1)C2 [Benztropine],≤ 10,≤ 2,–
"C=C(C)[C@@H]1CCC(C)=C[C@H]1c1c(O)cc(CCCCC)cc1O [CBD, cannabidiol]",–,–,remains intact
